# Measurements from US11304944B2, “MetAP2 inhibitors and methods of treating obesity” (SynDevRx, Inc., priority 2013, dated 2022).
# “And” between values parts separate entries of the source, which are not always exact repeats. Identical values can stand only once. Like-named read-outs stand apart in the source and are kept apart here.
# Test system: DIO C57Bl6 mice
# Conditions: for Weight Change from day 1: Day 32; for Average BW: IP-GTT day 24; for Blood Glucose 120 / Blood Glucose 15 min / Blood Glucose 30 min / Blood Glucose 60 min / Blood Glucose 90 min / Blood Glucose Fasting: IP-GTT day 24, ± SEM; for CHOLESTEROL / HDL CHOLESTEROL / HDL/LDL ratio / LDL / TRIGLYCERIDE: blood day 32, ± SEM; for Epid. Fat / Fat % BW / Ing. Fat / Liver / RP Fat / Total Fat / avg B.W.: day 32; for Blood glucose: day 32, fasted three hours; for weekly food consumption, % of vehicle: day 9-29
# Protocol: C57Bl6 male mice (N=6) fifteen weeks old with an average of weight of 42 g were ad libitum fed TD.06414 a high fat diet composed of 60% Kcal from fat (Harlan diet). […] Animals were weighed every other day. Food consumption was measured weekly. […] Each animal was weighed and a baseline fasted glucose measurement collected. Each animal was given a 1 gram per kilogram dose of dextrose as a 25% solution by intraperitoneal injection.
substance,measurement,setting,value
poly[HPMA-co-MA-GFLG-N-(trans-4-aminocyclohexyl)carbamoylfumagillol] [Compound 16],"Group BW ± SEM, Day 32",0.2 mg/kg q4d sc,46.5 ± 0.65 g
same,Weekly food consumption Day 1-8,0.2 mg/kg q4d sc,25.8 g
same,Weekly food consumption Day 9-15,0.2 mg/kg q4d sc,22.6 g
same,Weekly food consumption Day 15-22,0.2 mg/kg q4d sc,20.3 g
same,Weekly food consumption Day 22-29,0.2 mg/kg q4d sc,19.7 g
same,Weight Change from day 1,0.2 mg/kg q4d sc,+10.5%
same,Average BW,0.2 mg/kg q4d sc,43.4 g
same,Blood Glucose 120,0.2 mg/kg q4d sc,241 ± 16.8 mg/dL
same,Blood Glucose 15 min,0.2 mg/kg q4d sc,505 ± 33.9 mg/dL
same,Blood Glucose 30 min,0.2 mg/kg q4d sc,446 ± 20.5 mg/dL
same,Blood Glucose 60 min,0.2 mg/kg q4d sc,456 ± 25.9 mg/dL
same,Blood Glucose 90 min,0.2 mg/kg q4d sc,341 ± 15.5 mg/dL
same,Blood Glucose Fasting,0.2 mg/kg q4d sc,254 ± 5.8 mg/dL
same,CHOLESTEROL,0.2 mg/kg q4d sc,253 ± 8.4 mg/dL
same,HDL CHOLESTEROL,0.2 mg/kg q4d sc,117 ± 2.7 mg/dL
same,HDL/LDL ratio,0.2 mg/kg q4d sc,4.9 ± 0.2
same,LDL,0.2 mg/kg q4d sc,24 ± 1.1 mg/dL
same,TRIGLYCERIDE,0.2 mg/kg q4d sc,158 ± 10.9 mg/dL
same,Epid. Fat,0.2 mg/kg q4d sc,2.01 g
same,Fat % BW,0.2 mg/kg q4d sc,13.0%
same,Ing. Fat,0.2 mg/kg q4d sc,2.54 g
same,Liver,0.2 mg/kg q4d sc,2.06 g
same,RP Fat,0.2 mg/kg q4d sc,1.48 g
same,Total Fat,0.2 mg/kg q4d sc,6.02 g
same,avg B.W.,0.2 mg/kg q4d sc,46.50 g
same,Blood glucose,0.2 mg/kg q4d sc,290 mg/dL
same,"Group BW ± SEM, Day 32",0.6 mg/kg q4d sc,43.3 ± 0.42 g
same,Weekly food consumption Day 1-8,0.6 mg/kg q4d sc,19.5 g
same,Weekly food consumption Day 9-15,0.6 mg/kg q4d sc,21.5 g
same,Weekly food consumption Day 15-22,0.6 mg/kg q4d sc,20.2 g
same,Weekly food consumption Day 22-29,0.6 mg/kg q4d sc,18.4 g
same,Weight Change from day 1,0.6 mg/kg q4d sc,+2.9%
same,Average BW,0.6 mg/kg q4d sc,40.9 g
same,Blood Glucose 120,0.6 mg/kg q4d sc,192 ± 12.9 mg/dL
same,Blood Glucose 15 min,0.6 mg/kg q4d sc,442 ± 50.0 mg/dL
same,Blood Glucose 30 min,0.6 mg/kg q4d sc,441 ± 35.54 mg/dL
same,Blood Glucose 60 min,0.6 mg/kg q4d sc,388 ± 56.7 mg/dL
same,Blood Glucose 90 min,0.6 mg/kg q4d sc,302 ± 43.3 mg/dL
same,Blood Glucose Fasting,0.6 mg/kg q4d sc,206 ± 14.9 mg/dL
same,CHOLESTEROL,0.6 mg/kg q4d sc,210 ± 3.7 mg/dL
same,HDL CHOLESTEROL,0.6 mg/kg q4d sc,106 ± 1.2 mg/dL
same,HDL/LDL ratio,0.6 mg/kg q4d sc,5.4 ± 0.1
same,LDL,0.6 mg/kg q4d sc,20 ± 0.3 mg/dL
same,TRIGLYCERIDE,0.6 mg/kg q4d sc,116 ± 3.1 mg/dL
same,Epid. Fat,0.6 mg/kg q4d sc,2.24 g
same,Fat % BW,0.6 mg/kg q4d sc,13.9%
same,Ing. Fat,0.6 mg/kg q4d sc,2.51 g
same,Liver,0.6 mg/kg q4d sc,1.75 g
same,RP Fat,0.6 mg/kg q4d sc,1.26 g
same,Total Fat,0.6 mg/kg q4d sc,6.01 g
same,avg B.W.,0.6 mg/kg q4d sc,43.32 g
same,Blood glucose,0.6 mg/kg q4d sc,265 mg/dL
same,"weekly food consumption, % of vehicle",2 mg/kg q4d,90%
same,Weekly food consumption Day 1-8,2 mg/kg q4d sc,14.3 g
same,Weekly food consumption Day 9-15,2 mg/kg q4d sc,22.2 g
same,Weekly food consumption Day 15-22,2 mg/kg q4d sc,19.9 g
same,Weekly food consumption Day 22-29,2 mg/kg q4d sc,18.5 g
same,"Group BW ± SEM, Day 32",2.0 mg/kg q4d sc,38.8 ± 0.70 g
same,Weight Change from day 1,2.0 mg/kg q4d sc,−7.4%
same,Average BW,2.0 mg/kg q4d sc,36.8 g
same,Blood Glucose 120,2.0 mg/kg q4d sc,166 ± 6.4 mg/dL
same,Blood Glucose 15 min,2.0 mg/kg q4d sc,388 ± 20.7 mg/dL
same,Blood Glucose 30 min,2.0 mg/kg q4d sc,361 ± 24.3 mg/dL
same,Blood Glucose 60 min,2.0 mg/kg q4d sc,327 ± 26.7 mg/dL
same,Blood Glucose 90 min,2.0 mg/kg q4d sc,244 ± 24.0 mg/dL
same,Blood Glucose Fasting,2.0 mg/kg q4d sc,198 ± 11.6 mg/dL
same,CHOLESTEROL,2 mg/kg q4d sc,149 ± 4.7 mg/dL
same,HDL CHOLESTEROL,2 mg/kg q4d sc,92 ± 2.6 mg/dL
same,HDL/LDL ratio,2 mg/kg q4d sc,9.0 ± 0.4
same,LDL,2 mg/kg q4d sc,10 ± 0.5 mg/dL
same,TRIGLYCERIDE,2 mg/kg q4d sc,95 ± 8.7 mg/dL
same,Epid. Fat,2.0 mg/kg q4d sc,1.72 g
same,Fat % BW,2.0 mg/kg q4d sc,11% and 11.4%
same,Ing. Fat,2.0 mg/kg q4d sc,1.81 g
same,Liver,2.0 mg/kg q4d sc,1.44 g
same,RP Fat,2.0 mg/kg q4d sc,0.89 g
same,Total Fat,2.0 mg/kg q4d sc,4.42 g
same,avg B.W.,2.0 mg/kg q4d sc,38.82 g
same,Blood glucose,2.0 mg/kg q4d sc,259 mg/dL
same,"weekly food consumption, % of vehicle",6 mg/kg q4d,75%
same,Weekly food consumption Day 1-8,6 mg/kg q4d sc,9.0 g
same,Weekly food consumption Day 9-15,6 mg/kg q4d sc,17.5 g
same,Weekly food consumption Day 15-22,6 mg/kg q4d sc,17.8 g
same,Weekly food consumption Day 22-29,6 mg/kg q4d sc,16.1 g
same,"Group BW ± SEM, Day 32",6.0 mg/kg q4d sc,33.6 ± 0.72 g
same,Weight Change from day 1,6.0 mg/kg q4d sc,−20.0%
same,Average BW,6.0 mg/kg q4d sc,33.0 g
same,Blood Glucose 120,6.0 mg/kg q4d sc,177 ± 9.3 mg/dL
same,Blood Glucose 15 min,6.0 mg/kg q4d sc,473 ± 39.1 mg/dL
same,Blood Glucose 30 min,6.0 mg/kg q4d sc,355 ± 23.8 mg/dL
same,Blood Glucose 60 min,6.0 mg/kg q4d sc,324 ± 19.1 mg/dL
same,Blood Glucose 90 min,6.0 mg/kg q4d sc,240 ± 6.7 mg/dL
same,Blood Glucose Fasting,6.0 mg/kg q4d sc,185 ± 6.5 mg/dL
same,CHOLESTEROL,6 mg/kg q4d sc,109 ± 2.6 mg/dL
same,HDL CHOLESTEROL,6 mg/kg q4d sc,72 ± 1.3 mg/dL
same,HDL/LDL ratio,6 mg/kg q4d sc,9.0 ± 0.5
same,LDL,6 mg/kg q4d sc,8 ± 0.5 mg/dL
same,TRIGLYCERIDE,6 mg/kg q4d sc,81 ± 13.6 mg/dL
same,Epid. Fat,6.0 mg/kg q4d sc,1.11 g
same,Fat % BW,6.0 mg/kg q4d sc,10% and 9.7%
same,Ing. Fat,6.0 mg/kg q4d sc,1.54 g
same,Liver,6.0 mg/kg q4d sc,1.30 g
same,RP Fat,6.0 mg/kg q4d sc,0.60 g
same,Total Fat,6.0 mg/kg q4d sc,3.25 g
same,avg B.W.,6.0 mg/kg q4d sc,33.60 g
same,Blood glucose,6.0 mg/kg q4d sc,227 mg/dL
